# Data published in publication PMC4522657, “Identification of a DYRK1A Inhibitor that Induces Degradation of the Target Kinase using Co-chaperone CDC37 fused with Luciferase nanoKAZ” (Scientific Reports, 2015).
# Columns and labels:
# Test in all cases: Kinase panel, CaNDY 1 µM
# Assay type in all cases: biochemical
# Conditions in all cases: CaNDY 1 µM relative to DMSO
# [1] = biological target: T1, AMPKα1/β1/γ1 (Homo sapiens, UniProt Q13131)
# T1 construct: purchased Carna Biosciences
# How it was run: (§1)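 Baculovirus-expressed human kinases (full length, amino-terminal GST, glutathione-Sepharose purified) were incubated with compound for 1 h at RT in 1% DMSO. Phosphorylated and unphosphorylated substrate were resolved by off-chip mobility shift to give percent inhibition.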
# [2] = biological target: T2, GSK3β (Homo sapiens, UniProt P49841)
# T2 construct: purchased Carna Biosciences
# How it was run: as §1
# [3] = biological target: T3, SPHK2 (Homo sapiens, UniProt Q9NRA0)
# T3 construct: purchased Carna Biosciences
# How it was run: as §1
# [4] = biological target: T4, JAK2 (Homo sapiens, UniProt O60674)
# T4 construct: purchased Carna Biosciences
# How it was run: as §1
# [5] = biological target: T5, AurC (Homo sapiens, UniProt Q9UQB9)
# T5 construct: purchased Carna Biosciences
# How it was run: as §1
# [6] = biological target: T6, CaMK4 (Homo sapiens, UniProt Q16566)
# T6 construct: purchased Carna Biosciences
# How it was run: as §1
# [7] = biological target: T7, TRKB (Homo sapiens, UniProt Q16620)
# T7 construct: purchased Carna Biosciences
# How it was run: as §1
# [8] = biological target: T8, TEC (Homo sapiens, UniProt P42680)
# T8 construct: purchased Carna Biosciences
# How it was run: as §1
# [9] = biological target: T9, RET(G691S) (Homo sapiens, UniProt P07949, G691S)
# T9 construct: purchased Carna Biosciences
# How it was run: as §1
# [10] = biological target: T10, QIK (Homo sapiens, UniProt Q9H0K1)
# T10 construct: purchased Carna Biosciences
# T10 sequence (Q9H0K1 whole entry): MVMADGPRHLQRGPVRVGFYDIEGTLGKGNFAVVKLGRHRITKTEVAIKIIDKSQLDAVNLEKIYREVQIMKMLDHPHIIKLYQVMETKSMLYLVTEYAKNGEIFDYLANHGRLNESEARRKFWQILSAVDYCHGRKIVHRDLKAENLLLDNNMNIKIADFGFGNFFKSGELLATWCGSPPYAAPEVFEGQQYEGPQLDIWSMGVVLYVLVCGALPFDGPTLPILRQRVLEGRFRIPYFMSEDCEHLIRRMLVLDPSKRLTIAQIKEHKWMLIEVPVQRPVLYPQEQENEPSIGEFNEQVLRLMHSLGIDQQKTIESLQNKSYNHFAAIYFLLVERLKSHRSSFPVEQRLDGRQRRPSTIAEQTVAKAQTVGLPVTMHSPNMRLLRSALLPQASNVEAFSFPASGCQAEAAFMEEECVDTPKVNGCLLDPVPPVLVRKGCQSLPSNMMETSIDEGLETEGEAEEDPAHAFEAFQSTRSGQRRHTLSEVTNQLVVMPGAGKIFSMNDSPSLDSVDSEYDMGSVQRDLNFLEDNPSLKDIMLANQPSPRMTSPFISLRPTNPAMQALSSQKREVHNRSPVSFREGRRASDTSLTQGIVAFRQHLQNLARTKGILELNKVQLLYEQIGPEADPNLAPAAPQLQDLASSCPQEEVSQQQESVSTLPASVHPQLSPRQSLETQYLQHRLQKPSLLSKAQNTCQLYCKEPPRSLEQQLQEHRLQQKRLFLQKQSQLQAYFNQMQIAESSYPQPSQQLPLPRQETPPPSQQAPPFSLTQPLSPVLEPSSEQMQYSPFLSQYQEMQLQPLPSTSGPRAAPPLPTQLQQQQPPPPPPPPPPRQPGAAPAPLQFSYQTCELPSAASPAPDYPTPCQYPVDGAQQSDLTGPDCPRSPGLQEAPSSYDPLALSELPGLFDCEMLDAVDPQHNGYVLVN
# How it was run: as §1
# [11] = biological target: T11, JNK3 (Homo sapiens, UniProt P53779)
# T11 construct: purchased Carna Biosciences
# How it was run: as §1
# [12] = biological target: T12, ACK (Homo sapiens, UniProt Q07912)
# T12 construct: purchased Carna Biosciences
# How it was run: as §1
# [13] = biological target: T13, TXK (Homo sapiens, UniProt P42681)
# T13 construct: purchased Carna Biosciences
# T13 sequence (P42681 whole entry): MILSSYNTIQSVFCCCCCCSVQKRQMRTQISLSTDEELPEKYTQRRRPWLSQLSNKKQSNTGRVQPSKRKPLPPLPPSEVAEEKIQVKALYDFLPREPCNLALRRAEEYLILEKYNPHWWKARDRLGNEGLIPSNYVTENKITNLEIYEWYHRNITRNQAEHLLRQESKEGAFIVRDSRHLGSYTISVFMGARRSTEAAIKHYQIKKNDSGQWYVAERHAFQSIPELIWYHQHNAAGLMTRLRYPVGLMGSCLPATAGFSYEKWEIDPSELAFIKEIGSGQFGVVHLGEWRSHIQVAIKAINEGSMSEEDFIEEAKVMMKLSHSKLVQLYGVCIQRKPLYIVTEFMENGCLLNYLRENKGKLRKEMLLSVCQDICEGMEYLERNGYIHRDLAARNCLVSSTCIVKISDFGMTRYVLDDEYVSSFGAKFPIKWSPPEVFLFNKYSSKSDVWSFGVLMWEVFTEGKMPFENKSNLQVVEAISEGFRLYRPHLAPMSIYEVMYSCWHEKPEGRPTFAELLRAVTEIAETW
# How it was run: as §1
# [14] = biological target: T14, FLT3 (Homo sapiens, UniProt P36888)
# T14 construct: purchased Carna Biosciences
# How it was run: as §1
# [15] = biological target: T15, WNK2 (Homo sapiens, UniProt Q9Y3S1)
# T15 construct: purchased Carna Biosciences
# How it was run: as §1
# [16] = biological target: T16, PDGFRβ (Homo sapiens, UniProt P09619)
# T16 construct: purchased Carna Biosciences
# T16 sequence (P09619 33-1106): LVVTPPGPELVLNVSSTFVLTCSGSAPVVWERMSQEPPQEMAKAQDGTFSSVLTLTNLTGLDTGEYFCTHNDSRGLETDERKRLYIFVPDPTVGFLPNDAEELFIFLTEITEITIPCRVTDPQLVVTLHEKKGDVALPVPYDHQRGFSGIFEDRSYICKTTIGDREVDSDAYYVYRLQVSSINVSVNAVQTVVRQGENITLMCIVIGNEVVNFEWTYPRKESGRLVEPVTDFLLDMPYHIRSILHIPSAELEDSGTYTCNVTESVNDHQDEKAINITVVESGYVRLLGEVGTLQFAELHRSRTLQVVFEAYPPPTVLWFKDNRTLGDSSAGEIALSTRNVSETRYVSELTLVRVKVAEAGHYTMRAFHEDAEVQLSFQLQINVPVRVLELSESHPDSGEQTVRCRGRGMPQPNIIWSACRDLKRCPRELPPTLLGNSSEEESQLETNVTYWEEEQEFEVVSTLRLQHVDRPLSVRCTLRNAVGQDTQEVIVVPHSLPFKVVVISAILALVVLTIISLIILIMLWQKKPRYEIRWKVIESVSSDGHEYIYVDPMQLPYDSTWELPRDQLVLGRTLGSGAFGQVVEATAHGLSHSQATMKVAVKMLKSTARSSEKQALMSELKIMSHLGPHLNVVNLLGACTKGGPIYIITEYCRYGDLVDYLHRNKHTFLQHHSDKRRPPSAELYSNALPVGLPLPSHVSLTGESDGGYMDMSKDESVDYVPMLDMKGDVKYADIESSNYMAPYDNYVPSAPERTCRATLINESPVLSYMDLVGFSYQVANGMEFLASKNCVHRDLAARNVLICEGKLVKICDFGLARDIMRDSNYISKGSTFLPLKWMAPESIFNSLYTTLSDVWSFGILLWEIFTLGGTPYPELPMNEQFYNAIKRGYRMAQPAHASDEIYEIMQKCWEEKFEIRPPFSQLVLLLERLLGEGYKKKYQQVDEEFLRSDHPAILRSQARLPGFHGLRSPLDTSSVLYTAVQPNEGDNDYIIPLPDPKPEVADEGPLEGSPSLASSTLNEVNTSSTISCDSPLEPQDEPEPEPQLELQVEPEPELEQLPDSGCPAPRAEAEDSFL
# How it was run: as §1
# [17] = biological target: T17, DDR1 (Homo sapiens, UniProt Q08345)
# T17 construct: purchased Carna Biosciences
# How it was run: as §1
# [18] = biological target: T18, PAK3 (Homo sapiens, UniProt O75914)
# T18 construct: purchased Carna Biosciences
# How it was run: as §1
# [19] = biological target: T19, IKKα (Homo sapiens, UniProt O15111)
# T19 construct: purchased Carna Biosciences
# How it was run: as §1
# [20] = biological target: T20, p38β (Homo sapiens, UniProt Q15759)
# T20 construct: purchased Carna Biosciences
# How it was run: as §1
# [21] = biological target: T21, EPHA6 (Homo sapiens, UniProt Q9UF33)
# T21 construct: purchased Carna Biosciences
# How it was run: as §1
# [22] = biological target: T22, ALK (Homo sapiens, UniProt Q9UM73)
# T22 construct: purchased Carna Biosciences
# How it was run: as §1
# [23] = biological target: T23, EGFR(L861Q) (Homo sapiens, UniProt P00533, L861Q)
# T23 construct: purchased Carna Biosciences
# How it was run: as §1
# [24] = biological target: T24, CaMK2δ (Homo sapiens, UniProt Q13557)
# T24 construct: purchased Carna Biosciences
# How it was run: as §1
# [25] = biological target: T25, PKN1 (Homo sapiens, UniProt Q16512)
# T25 construct: purchased Carna Biosciences
# How it was run: as §1
# [26] = biological target: T26, NEK4 (Homo sapiens, UniProt P51957)
# T26 construct: purchased Carna Biosciences
# T26 sequence (P51957 whole entry): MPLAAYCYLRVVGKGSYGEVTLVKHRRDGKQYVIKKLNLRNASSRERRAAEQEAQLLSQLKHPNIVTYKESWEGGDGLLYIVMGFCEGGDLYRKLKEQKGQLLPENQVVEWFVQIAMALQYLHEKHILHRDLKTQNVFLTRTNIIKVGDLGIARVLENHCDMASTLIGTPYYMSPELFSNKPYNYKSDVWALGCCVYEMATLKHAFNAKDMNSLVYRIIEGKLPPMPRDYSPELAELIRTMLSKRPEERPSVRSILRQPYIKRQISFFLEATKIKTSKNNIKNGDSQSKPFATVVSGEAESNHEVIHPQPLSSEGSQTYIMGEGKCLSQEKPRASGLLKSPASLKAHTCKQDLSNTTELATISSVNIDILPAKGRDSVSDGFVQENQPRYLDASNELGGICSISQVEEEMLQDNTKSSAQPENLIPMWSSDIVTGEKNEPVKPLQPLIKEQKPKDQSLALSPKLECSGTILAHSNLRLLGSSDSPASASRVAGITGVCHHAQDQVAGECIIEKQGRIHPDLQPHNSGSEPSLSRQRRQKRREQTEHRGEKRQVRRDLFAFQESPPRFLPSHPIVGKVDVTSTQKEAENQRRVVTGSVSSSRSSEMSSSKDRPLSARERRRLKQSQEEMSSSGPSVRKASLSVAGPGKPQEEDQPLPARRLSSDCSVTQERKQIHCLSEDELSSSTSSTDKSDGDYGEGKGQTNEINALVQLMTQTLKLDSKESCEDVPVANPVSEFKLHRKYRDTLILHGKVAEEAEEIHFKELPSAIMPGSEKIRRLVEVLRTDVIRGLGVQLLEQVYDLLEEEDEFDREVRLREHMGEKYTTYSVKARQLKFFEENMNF
# How it was run: as §1
# [27] = biological target: T27, JAK3 (Homo sapiens, UniProt P52333)
# T27 construct: purchased Carna Biosciences
# How it was run: as §1
# [28] = biological target: T28, BRSK2 (Homo sapiens, UniProt Q8IWQ3)
# T28 construct: purchased Carna Biosciences
# How it was run: as §1
# [29] = biological target: T29, WNK3 (Homo sapiens, UniProt Q9BYP7)
# T29 construct: purchased Carna Biosciences
# How it was run: as §1
# [30] = biological target: T30, PKACγ (Homo sapiens, UniProt P22612)
# T30 construct: purchased Carna Biosciences
# T30 sequence (P22612 whole entry): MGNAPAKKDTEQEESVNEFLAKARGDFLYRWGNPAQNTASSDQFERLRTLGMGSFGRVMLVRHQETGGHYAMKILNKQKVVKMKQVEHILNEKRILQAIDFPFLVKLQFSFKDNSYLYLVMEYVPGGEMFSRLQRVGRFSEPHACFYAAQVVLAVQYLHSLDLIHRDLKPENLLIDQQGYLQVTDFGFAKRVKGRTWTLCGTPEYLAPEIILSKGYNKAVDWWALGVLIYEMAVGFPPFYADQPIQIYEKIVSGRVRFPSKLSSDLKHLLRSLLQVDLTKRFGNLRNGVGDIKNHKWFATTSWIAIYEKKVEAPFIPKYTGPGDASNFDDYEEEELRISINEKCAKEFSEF
# How it was run: as §1
# [31] = biological target: T31, MST3 (Homo sapiens, UniProt Q9Y6E0)
# T31 construct: purchased Carna Biosciences
# How it was run: as §1
# [32] = biological target: T32, SLK (Homo sapiens, UniProt Q9H2G2)
# T32 construct: purchased Carna Biosciences
# T32 sequence (Q9H2G2 whole entry): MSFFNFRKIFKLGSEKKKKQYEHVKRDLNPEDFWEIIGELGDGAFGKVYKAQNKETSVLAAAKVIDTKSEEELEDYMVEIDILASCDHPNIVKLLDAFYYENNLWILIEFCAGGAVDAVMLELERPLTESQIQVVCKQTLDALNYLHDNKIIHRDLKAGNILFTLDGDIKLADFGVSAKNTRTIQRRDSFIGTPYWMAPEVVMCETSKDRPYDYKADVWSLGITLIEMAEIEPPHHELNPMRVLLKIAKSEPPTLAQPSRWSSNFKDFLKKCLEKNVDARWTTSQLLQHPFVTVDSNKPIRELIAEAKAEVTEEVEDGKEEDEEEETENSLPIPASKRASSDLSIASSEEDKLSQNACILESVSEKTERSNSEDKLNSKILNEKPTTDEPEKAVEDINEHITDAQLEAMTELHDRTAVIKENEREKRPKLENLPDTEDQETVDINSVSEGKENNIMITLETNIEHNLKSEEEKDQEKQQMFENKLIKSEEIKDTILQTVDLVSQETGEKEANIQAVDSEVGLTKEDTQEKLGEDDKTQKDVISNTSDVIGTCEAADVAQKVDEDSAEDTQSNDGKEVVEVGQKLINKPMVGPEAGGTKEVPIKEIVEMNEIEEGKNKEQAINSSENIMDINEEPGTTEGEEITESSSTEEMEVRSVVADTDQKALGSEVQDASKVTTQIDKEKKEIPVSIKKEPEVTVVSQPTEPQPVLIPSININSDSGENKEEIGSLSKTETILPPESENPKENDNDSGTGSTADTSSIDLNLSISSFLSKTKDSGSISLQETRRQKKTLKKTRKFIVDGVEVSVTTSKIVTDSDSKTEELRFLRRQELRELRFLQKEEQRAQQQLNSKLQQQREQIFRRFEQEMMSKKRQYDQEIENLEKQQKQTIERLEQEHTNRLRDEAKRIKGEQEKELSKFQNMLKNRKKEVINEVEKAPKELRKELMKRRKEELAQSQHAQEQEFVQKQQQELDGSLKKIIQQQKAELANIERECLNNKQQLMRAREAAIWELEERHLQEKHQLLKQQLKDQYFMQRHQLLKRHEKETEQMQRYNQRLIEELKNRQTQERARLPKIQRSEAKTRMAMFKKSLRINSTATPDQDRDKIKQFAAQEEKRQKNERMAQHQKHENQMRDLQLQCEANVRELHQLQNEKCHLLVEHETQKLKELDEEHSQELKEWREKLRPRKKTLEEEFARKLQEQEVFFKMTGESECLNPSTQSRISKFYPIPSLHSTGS
# How it was run: as §1
# [33] = biological target: T33, KIT(D816V) (Homo sapiens, UniProt P10721, D816V)
# T33 construct: purchased Carna Biosciences
# How it was run: as §1
# [34] = biological target: T34, MINK (Homo sapiens, UniProt Q8N4C8)
# T34 construct: purchased Carna Biosciences
# How it was run: as §1
# [35] = biological target: T35, SRM (Homo sapiens, UniProt Q9H3Y6)
# T35 construct: purchased Carna Biosciences
# How it was run: as §1
# [36] = biological target: T36, PIM3 (Homo sapiens, UniProt Q86V86)
# T36 construct: purchased Carna Biosciences
# How it was run: as §1
smiles,measurement,setting,value
"[H]/N=C1/NC(=O)C(=Cc2ccc3c(c2)CCO3)S1 [CaNDY, (Z)-5-[(2,3-dihydrobenzofuran-5-yl)methylene]-2-iminothiazolidin-4-one]",remaining activity at 1 µM,[1],91.9%
same,remaining activity at 1 µM,[2],74.1%
same,remaining activity at 1 µM,[3],92.3%
same,%Activity,[4],100.3%
same,remaining activity at 1 µM,[5],97%
same,remaining activity at 1 µM,[6],103%
same,remaining activity at 1 µM,[7],101%
same,remaining activity at 1 µM,[8],103%
same,remaining activity at 1 µM,[9],102%
same,remaining activity at 1 µM,[10],99.5%
same,%Activity,[11],100.8%
same,remaining activity at 1 µM,[12],108%
same,remaining activity at 1 µM,[13],96.8%
same,remaining activity at 1 µM,[14],101%
same,remaining activity at 1 µM,[15],101%
same,remaining activity at 1 µM,[16],91.7%
same,remaining activity at 1 µM,[17],99.3%
same,remaining activity at 1 µM,[18],109%
same,remaining activity at 1 µM,[19],95.7%
same,remaining activity at 1 µM,[20],99.7%
same,remaining activity at 1 µM,[21],96.8%
same,remaining activity at 1 µM,[22],98.7%
same,%Activity,[23],103.3%
same,remaining activity at 1 µM,[24],89.6%
same,remaining activity at 1 µM,[25],74.6%
same,remaining activity at 1 µM,[26],86.2%
same,remaining activity at 1 µM,[27],94.2%
same,remaining activity at 1 µM,[28],97.8%
same,remaining activity at 1 µM,[29],102%
same,remaining activity at 1 µM,[30],78.2%
same,%Activity,[31],100.2%
same,remaining activity at 1 µM,[32],96.9%
same,remaining activity at 1 µM,[33],92.2%
same,remaining activity at 1 µM,[34],83.7%
same,remaining activity at 1 µM,[35],77%
same,remaining activity at 1 µM,[36],41.4%
